From patent publication US8420633B2 (Hoffmann-La Roche Inc., priority 2010, dated 2013) come the findings set out here.

Counter-ions that a name gives are not always drawn.

T1 sequence (P37288 whole entry): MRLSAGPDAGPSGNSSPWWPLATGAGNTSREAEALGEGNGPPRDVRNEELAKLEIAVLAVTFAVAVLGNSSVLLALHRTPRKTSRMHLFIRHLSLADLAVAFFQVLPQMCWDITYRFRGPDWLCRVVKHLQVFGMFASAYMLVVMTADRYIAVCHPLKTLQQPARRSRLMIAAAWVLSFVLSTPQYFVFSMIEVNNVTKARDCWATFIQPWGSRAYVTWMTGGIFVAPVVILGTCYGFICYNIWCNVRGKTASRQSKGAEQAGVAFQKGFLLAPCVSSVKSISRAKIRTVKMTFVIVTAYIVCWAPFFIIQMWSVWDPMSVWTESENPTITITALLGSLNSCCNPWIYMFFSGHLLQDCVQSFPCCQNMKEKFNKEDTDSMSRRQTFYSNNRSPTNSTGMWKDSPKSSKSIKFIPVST

One experiment addresses T1, human V1a receptor (Homo sapiens, UniProt P37288).
T1 construct: expressed in transfected cells; host or cells: HEK293 cells, transiently transfected; membranes prepared
In words: human V1a receptor binding (3H-Vasopressin SPA, HEK293 membranes).
Conditions: not given
The method, then: The human V1a receptor was cloned by RT-PCR from total human liver RNA. The coding sequence was subcloned in an expression vector after sequencing to confirm the identity of the amplified sequence. […] Cell membranes were prepared from HEK293 cells transiently transfected with the expression vector and grown in 20 liter fermenters with the following protocol.
50 g of cells are resuspended in 30 ml freshly prepared ice cold Lysis buffer (50 mM HEPES, 1 mM EDTA, 10 mM magnesium dichloride adjusted to pH=7.4+complete cocktail of protease inhibitor (Roche Diagnostics)). Homogenized with Polytron for 1 min and sonicated on ice for 2×2 minutes at 80% intensity (Vibracell sonicator). The preparation is centrifuged 20 min at 500 g at 4° C., the pellet is discarded and the supernatant centrifuged 1 hour at 43,000 g at 4° C. (19,000 rpm). The pellet is resuspended in 12.5 ml Lysis buffer+12.5 ml sucrose 20% and homogenized using a Polytron for 1-2 min. The protein concentration is determined by the Bradford method and aliquots are stored at −80° C. until use. For binding studies 60 mg Yttrium silicate SPA beads (Amersham®) are mixed with an aliquot of membrane in binding buffer (50 mM Tris, 120 mM sodium chloride, 5 mM potassium chloride, 2 mM calcium dichloride, 10 mM magnesium dichloride) for 15 minutes with mixing. 50 μl of bead/membrane mixture is then added to each well of a 96 well plate, followed by 50 μl of 4 nM 3H-Vasopressin (American Radiolabeled Chemicals). For total binding measurement 100 μl of binding buffer are added to the respective wells, for non-specific binding 100 μl of 8.4 mM cold vasopressin and for compound testing 100 μl of a serial dilution of each compound in 2% dimethyl sulfoxide. The plate is incubated 1 h at room temperature, centrifuged 1 min at 1000 g and counted on a Packard Top-Count. Non-specific binding counts are subtracted from each well and data is normalized to the maximum specific binding set at 100%. To calculate an IC50 the curve is fitted using a non-linear regression model (XLfit) and the Ki is calculated using the Cheng-Prussoff equation.
Consider `CN1Cc2cc(Cl)ccc2-n2c(nnc2[C@H]2CC[C@H](c3ccccc3)CC2)C1` [Example 3, trans-8-Chloro-5-methyl-1-(4-phenyl-cyclohexyl)-5,6-dihydro-4H-2,3,5,10b-tetraaza-benzo[e]azulene], for which the Ki was 0.000794 µM.

The same experiment, now with this note: 3H-Vasopressin displacement, membranes of HEK293 cells transiently transfected with human V1a; Ki from IC50 by Cheng-Prussoff; read-out: pKi (hV1a) (converted).
With `CC(C)(C)OC(=O)N1Cc2cc(Cl)ccc2-n2c(nnc2[C@H]2CC[C@H](c3ccccc3)CC2)C1` [Example 1, trans-8-Chloro-1-(4-phenyl-cyclohexyl)-4H,6H-2,3,5,10b-tetraaza-benzo[e]azulene-5-carboxylic acid tert-butyl ester], the Ki was 0.00646 µM.
Still for that read-out and setting: for `Clc1ccc2c(c1)CNCc1nnc([C@H]3CC[C@H](c4ccccc4)CC3)n1-2` [Example 2, trans-8-Chloro-1-(4-phenyl-cyclohexyl)-5,6-dihydro-4H-2,3,5,10b-tetraaza-benzo[e]azulene hydrochloride] the value was 0.00209 µM; for `Cc1ccccc1[C@H]1CC[C@@H](c2nnc3n2-c2ccc(Cl)cc2CN(C)C3)CC1` [Example 4, cis-8-Chloro-5-methyl-1-(4-o-tolyl-cyclohexyl)-5,6-dihydro-4H-2,3,5,10b-tetraaza-benzo[e]azulene], 0.0162 µM.
Same read-out and setting: the value for `Cc1ccccc1[C@H]1CC[C@H](c2nnc3n2-c2ccc(Cl)cc2CN(C)C3)CC1` [Example 5, trans-8-Chloro-5-methyl-1-(4-o-tolyl-cyclohexyl)-5,6-dihydro-4H-2,3,5,10b-tetraaza-benzo[e]azulene] was 0.00427 µM; that for `Cc1ccccc1[C@H]1CC[C@@H](c2nnc3n2-c2ccccc2CN(C)C3)CC1` [Example 6, cis-5-Methyl-1-(4-o-tolyl-cyclohexyl)-5,6-dihydro-4H-2,3,5,10b-tetraaza-benzo[e]azulene] was 0.339 µM.
Take `CC(C)(C)OC(=O)N1Cc2cc(Cl)ccc2-n2c(nnc2[C@H]2CC[C@@H](c3ccc(F)cc3)CC2)C1` [Example 7]: the Ki was 0.0525 µM.
Turning to `Fc1ccc([C@H]2CC[C@@H](c3nnc4n3-c3ccc(Cl)cc3CNC4)CC2)cc1` [Example 8, cis-8-Chloro-1-[4-(4-fluoro-phenyl)-cyclohexyl]-5,6-dihydro-4H-2,3,5,10b-tetraaza-benzo[e]azulene hydrochloride], the Ki is 0.302 µM.
As to `CN1Cc2cc(Cl)ccc2-n2c(nnc2[C@H]2CC[C@@H](c3ccc(F)cc3)CC2)C1` [Example 9, cis-8-Chloro-1-[4-(4-fluoro-phenyl)-cyclohexyl]-5-methyl-5,6-dihydro-4H-2,3,5,10b-tetraaza-benzo[e]azulene], the Ki was 0.0302 µM.
Still for that read-out and setting: for `CC(C)(C)OC(=O)N1Cc2cc(Cl)ccc2-n2c(nnc2[C@H]2CC[C@H](c3ccc(F)cc3)CC2)C1` [Example 10] the value was 0.00468 µM; for `Fc1ccc([C@H]2CC[C@H](c3nnc4n3-c3ccc(Cl)cc3CNC4)CC2)cc1` [Example 11, trans-8-Chloro-1-[4-(4-fluoro-phenyl)-cyclohexyl]-5,6-dihydro-4H-2,3,5,10b-tetraaza-benzo[e]azulene hydrochloride], 0.00631 µM; for `CN1Cc2cc(Cl)ccc2-n2c(nnc2[C@H]2CC[C@H](c3ccc(F)cc3)CC2)C1` [Example 12, trans-8-Chloro-1-[4-(4-fluoro-phenyl)-cyclohexyl]-5-methyl-5,6-dihydro-4H-2,3,5,10b-tetraaza-benzo[e]azulene], 0.00219 µM.
On the same count and under the same terms, the value for `CC(C)(C)OC(=O)N1Cc2cc(Cl)ccc2-n2c(nnc2[C@H]2CC[C@H](c3cccc(OC(F)(F)F)c3)CC2)C1` [Example 13, trans-8-Chloro-1-[4-(3-trifluoromethoxy-phenyl)-cyclohexyl]-4H,6H-2,3,5,10b-tetraaza-benzo[e]azulene-5-carboxylic acid tert-butyl ester] was 0.0182 µM; that for `FC(F)(F)Oc1cccc([C@H]2CC[C@H](c3nnc4n3-c3ccc(Cl)cc3CNC4)CC2)c1` [Example 14, trans-8-Chloro-1-[4-(3-trifluoromethoxy-phenyl)-cyclohexyl]-5,6-dihydro-4H-2,3,5,10b-tetraaza-benzo[e]azulene hydrochloride] was 0.0575 µM.
